What was measured:
[1] = (§1) The drug is tested on Z-016 corresponding to mouse gut metagenome with ENA study accession number: PRJEB37062 and ENA sample accession number: ERS12561815 for biotransformation under anaerobic condition. The drug concentrations were measured over 9 timepoints collected between 0 and 24 hours of incubation by liquid-chromatography-coupled mass spectrometry (LC–MS); settings: 2 µM
[2] = human gut metagenome, 24 h, 2 µM
[3] = as §1, with “WLS-370” for “Z-016”, “human” for “mouse”, “ERS12561793” for “ERS12561815”; settings: 2 µM
[4] = as §1, with “WLS-086” for “Z-016”, “human” for “mouse”, “ERS12561752” for “ERS12561815”; settings: 2 µM
[5] = as §1, with “Z-009” for “Z-016”, “pig” for “mouse”, “ERS12561809” for “ERS12561815”; settings: 2 µM
[6] = human gut metagenome, 24 h, 2 µM; remark: listed apart in the source
[7] = human gut metagenome, 24 h, 2 µM; remark: listed apart in the source
[8] = human gut metagenome, 24 h, 2 µM; remark: listed apart in the source
[9] = human gut metagenome, 24 h, 2 µM; remark: listed apart in the source
[10] = as §1, with “Z-023” for “Z-016”, “to” for “to mouse gut”, “ERS12561822” for “ERS12561815”; settings: 2 µM
[11] = as §1, with “Z-014” for “Z-016”, “rat” for “mouse”, “ERS12561814” for “ERS12561815”; settings: 2 µM
[12] = human gut metagenome, 24 h, 2 µM; remark: listed apart in the source
[13] = human gut metagenome, 24 h, 2 µM; remark: listed apart in the source
[14] = as §1, with “Z-004” for “Z-016”, “to” for “to mouse gut”, “ERS12561804” for “ERS12561815”; settings: 2 µM
[15] = human gut metagenome, 24 h, 2 µM; remark: listed apart in the source
[16] = as §1, with “Z-003” for “Z-016”, “pig” for “mouse”, “ERS12561803” for “ERS12561815”; settings: 2 µM
[17] = as §1, with “Z-030” for “Z-016”, “ERS12561829” for “ERS12561815”; settings: 2 µM
[18] = as §1, with “Z-027” for “Z-016”, “to” for “to mouse gut”, “ERS12561826” for “ERS12561815”; settings: 2 µM
[19] = human gut metagenome, 24 h, 2 µM; remark: listed apart in the source
[20] = as §1, with “Z-001” for “Z-016”, “ERS12561801” for “ERS12561815”; settings: 2 µM
Note: call rule not given here.

SMILES | Bacterial Biotransformation [1] | Bacterial Biotransformation [2] | Bacterial Biotransformation [3] | Bacterial Biotransformation [4] | Bacterial Biotransformation [5] | Bacterial Biotransformation [6] | Bacterial Biotransformation [7] | Bacterial Biotransformation [8] | Bacterial Biotransformation [9] | Bacterial Biotransformation [10] | Bacterial Biotransformation [11] | Bacterial Biotransformation [12] | Bacterial Biotransformation [13] | Bacterial Biotransformation [14] | Bacterial Biotransformation [15] | Bacterial Biotransformation [16] | Bacterial Biotransformation [17] | Bacterial Biotransformation [18] | Bacterial Biotransformation [19] | Bacterial Biotransformation [20]
CC(CN(C)C)CN1c2ccccc2CCc2ccccc21.O=C(O)/C=C\C(=O)O (stereo not given) [TRIMIPRAMINE MALEATE] | Compound NOT metabolized | Compound NOT metabolized | Compound NOT metabolized | Compound metabolized | Compound NOT metabolized | Compound NOT metabolized | Compound NOT metabolized | Compound NOT metabolized | Compound metabolized | Compound metabolized | Compound NOT metabolized | Compound metabolized | Compound metabolized | Compound NOT metabolized | Compound metabolized | Compound metabolized | Compound NOT metabolized | Compound NOT metabolized | Compound metabolized | Compound NOT metabolized
CCN(CC)CC#CCOC(=O)C(O)(c1ccccc1)C1CCCCC1.Cl (stereo not given) [OXYBUTYNIN CHLORIDE] | Compound NOT metabolized | Compound metabolized | Compound metabolized | Compound metabolized | Compound metabolized | Compound metabolized | Compound NOT metabolized | Compound metabolized | Compound metabolized | Compound metabolized | Compound NOT metabolized | Compound metabolized | Compound metabolized | Compound metabolized | Compound metabolized | Compound metabolized | Compound NOT metabolized | Compound NOT metabolized | Compound metabolized | Compound metabolized
CC[C@@H](CO)NC(=O)[C@@H]1C=C2c3cccc4c3c(cn4C)C[C@H]2N(C)C1.O=C(O)/C=C\C(=O)O [METHYSERGIDE MALEATE] | Compound NOT metabolized | Compound NOT metabolized | Compound NOT metabolized | Compound metabolized | Compound NOT metabolized | Compound NOT metabolized | Compound NOT metabolized | Compound NOT metabolized | Compound NOT metabolized | Compound NOT metabolized | Compound NOT metabolized | Compound NOT metabolized | Compound NOT metabolized | Compound NOT metabolized | Compound NOT metabolized | Compound NOT metabolized | Compound NOT metabolized | Compound NOT metabolized | Compound metabolized | Compound NOT metabolized
CN1CCOC(c2ccccc2)c2ccccc2C1 (stereo not given) [NEFOPAM] | Compound NOT metabolized | Compound metabolized | Compound metabolized | Compound metabolized | Compound NOT metabolized | Compound metabolized | Compound NOT metabolized | Compound metabolized | Compound metabolized | Compound NOT metabolized | Compound NOT metabolized | Compound metabolized | Compound NOT metabolized | Compound NOT metabolized | Compound NOT metabolized | Compound NOT metabolized | Compound NOT metabolized | Compound NOT metabolized | Compound metabolized | Compound NOT metabolized
CN1CC(=O)N2[C@H](c3ccc4c(c3)OCO4)c3[nH]c4ccccc4c3C[C@@H]2C1=O | Compound metabolized | Compound metabolized | Compound metabolized | Compound metabolized | Compound metabolized | Compound metabolized | Compound NOT metabolized | Compound NOT metabolized | Compound metabolized | Compound metabolized | Compound NOT metabolized | Compound metabolized | Compound metabolized | Compound metabolized | Compound metabolized | Compound metabolized | Compound NOT metabolized | Compound NOT metabolized | Compound metabolized | Compound NOT metabolized
CCN(CC)CCOC(=O)C(Cc1cccc2ccccc12)CC1CCCO1.O=C(O)C(=O)O (stereo not given) [NAFRONYL OXALATE] | Compound metabolized | Compound metabolized | Compound NOT metabolized | Compound metabolized | Compound metabolized | Compound metabolized | Compound metabolized | Compound metabolized | Compound metabolized | Compound metabolized | Compound NOT metabolized | Compound metabolized | Compound NOT metabolized | Compound metabolized | Compound metabolized | Compound metabolized | Compound NOT metabolized | Compound NOT metabolized | Compound metabolized | Compound NOT metabolized
CS(=O)(=O)O.OC(CCN1CCCCC1)(c1ccccc1)c1ccccc1 [PRIDINOL METHANESULFONATE] | Compound NOT metabolized | Compound metabolized | Compound NOT metabolized | Compound metabolized | Compound NOT metabolized | Compound metabolized | Compound NOT metabolized | Compound NOT metabolized | Compound metabolized | Compound NOT metabolized | Compound NOT metabolized | Compound metabolized | Compound NOT metabolized | Compound NOT metabolized | Compound NOT metabolized | Compound metabolized | Compound NOT metabolized | Compound NOT metabolized | Compound metabolized | Compound NOT metabolized
CCCCc1nc(Cl)c(CO)n1Cc1ccc(-c2ccccc2-c2nn[nH]n2)cc1 [LOSARTAN] | Compound NOT metabolized | Compound metabolized | Compound metabolized | Compound metabolized | Compound NOT metabolized | Compound metabolized | Compound metabolized | Compound NOT metabolized | Compound metabolized | Compound metabolized | Compound NOT metabolized | Compound metabolized | Compound metabolized | Compound NOT metabolized | Compound metabolized | Compound NOT metabolized | Compound NOT metabolized | Compound NOT metabolized | Compound metabolized | Compound NOT metabolized
